Measurements reported in patent US10112931B2, “3-pyrimidin-4-yl-oxazolidin-2-ones as inhibitors of mutant IDH” (NOVARTIS AG, priority 2013, dated 2018).
Structures can show the parent of a compound that is named as a salt.

How the values were obtained:
Type in all cases: in vitro ADME
[1] = Metabolic stability in liver microsomes, Method II, human
Experimental: Determination of Metabolic Stability in Liver Microsomes—Method II
The in vitro metabolic stability assay was performed in a 96-deep-well plate with incubation at 37° C. 10 mM DMSO stock solution of the test compound was diluted 1:20 in acetonitrile, followed by an additional 1:10 dilution in 100 mM potassium phosphate buffer (KPi) to yield a final reaction concentration of 1 μM. Immediately prior to the start of the experiment, respective animal or human liver microsomes (male Sprague-dawley rat, male CD-1 mouse, or pooled human liver microsomes) were diluted in 100 mM KPi to 1.25 mg/mL liver microsomal protein. 290 μL of cofactor solution (1.7 mM NADPH, 1.7 mM UDPGA, 3.4 mM MgCl in 100 mM KPi) was added to 200 μL of microsomal protein for a final volume of 490 μL. The reaction was initiated by adding 10 μL of the 50 μM test solution to 490 μL of microsomal protein for a final volume 500 μL enzyme-compound mixture.
At 0, 5, 15 and 30 minute time points in the reaction, reaction aliquots (75 μL) were removed and the reactions were terminated by the addition of 50:50 acetonitrile/methanol solution (75 μL) containing a mass spectrometry internal standard (0.5 μM glyburide). The samples were centrifuged at 4000 RPM for 10 minutes. Supernatants (15 μL aliquots) were transferred to a new plate where each well contains 90 μL of deionized water. The supernatants solution were analyzed by UPLC/MS/MS for quantitation of parent remaining compound under multiple reactions monitoring mode (MRM) in positive mode. The percentage of compound remaining, relative to 0 minutes, was used to estimate in vitro elimination-rate constant (k) which was used to calculate in vitro metabolic clearance rates.
Analysis of the samples was performed on an ultra-performance liquid chromatography-tandem mass spectrometry (UPLC/MS/MS) system consisting of an AB Sciex Qtrap 5500 mass spectrometer, AB Sciex Turbo V ion source, Waters Acquity Sample Organizer, Waters Acquity Column manager, Waters Acquity Sample manager, and a Waters Acquity Binary Solvent Manager. Chromatographic separation of analyte and internal standard was achieved using a reverse phase C-18 column (50×2.1 mm, 1.7 μm, Acquity UPLC BEH C-18) with the following UPLC mobile phases and elution gradient: […]
UPLC mobile phase A: 0.25% formic acid in 5% methanol; mobile phase B: 0.25% formic acid in […].
LC gradient and flow rate are listed below: […]
The injection volume was 5 μL. Compounds were detected using Analyst 1.5.1 software which collects intensity data for all fragments related to the molecular weight of the test compound. After collection of the raw data, the software identifies and integrates the peak of the strongest intensity.
Each microsomal elimination rate, k, was based on a 4-point elimination curve tested in duplicates. LC-MS/MS raw data for a reaction plate was returned as integrated analyte peak areas for the test compound and internal standard used in the quench solution for the reaction to enable use of analyte:internal standard peak area ratios (PARs) for all data comparisons. The reaction time point (e.g. 0, 5, 15 and 30 minutes) was plotted versus the natural logarithm of percent test compound remaining relative to 0 minutes (based on relative PAR). The slope of this clearance plot, k, was used to calculate the in vitro half-life.
[formula] The intrinsic clearance value, CLint (expressed as μL/min/mg microsomal protein) calculation is shown below:
[formula] […]

[2] = Metabolic stability in liver microsomes, Method II, mouse
Experimental: The in vitro metabolic stability assay was performed in a 96-deep-well plate with incubation at 37° C. 10 mM DMSO stock solution of the test compound was diluted 1:20 in acetonitrile, followed by an additional 1:10 dilution in 100 mM potassium phosphate buffer (KPi) to yield a final reaction concentration of 1 μM. […] 290 μL of cofactor solution (1.7 mM NADPH, 1.7 mM UDPGA, 3.4 mM MgCl in 100 mM KPi) was added to 200 μL of microsomal protein for a final volume of 490 μL. The reaction was initiated by adding 10 μL of the 50 μM test solution to 490 μL of microsomal protein for a final volume 500 μL enzyme-compound mixture.
UPLC mobile phase A: 0.25% formic acid in 5% methanol; mobile phase B: 0.25% formic acid in 95% water.
Each microsomal elimination rate, k, was based on a 4-point elimination curve tested in duplicates. LC-MS/MS raw data for a reaction plate was returned as integrated analyte peak areas for the test compound and internal standard used in the quench solution for the reaction to enable use of analyte:internal standard peak area ratios (PARs) for all data comparisons. […]
[formula] The intrinsic clearance value, CLint (expressed as μL/min/mg microsomal protein) calculation is shown below: […]

[3] = Metabolic stability in liver microsomes, Method I, rat
Experimental: The in vitro metabolic stability assay was performed in a 96-well glass plate with shaking incubation at 37° C. A 10 mM DMSO stock solution of the test compound was sequentially diluted 1:1000 to yield a final reaction concentration of 1 μM in 50 mM KPi. […] 30 μL of the 10 μM solution containing the test compound was added to 120 μL of microsomal protein for 150 μL enzyme-compound mixture. The reaction was initiated by adding 150 μL of cofactor solution (2 mM NADPH, 4 mM MgCl in 50 mM KPi) to the enzyme-compound mixture, and the final reaction concentrations are listed in the table below.
At 0, 5, 10 and 30 minute time points in the reaction, reaction aliquots (50 μL) were removed and the reactions were terminated by the addition of acetonitrile (150 μL) containing a mass spectrometry internal standard (1 μM glyburide). The samples were centrifuged and the supernatants analyzed by LC-MS/MS for quantization of remaining compound. […]
Mobile phase A consisted of purified water containing 0.01% formic acid. […] Compounds were detected using the Thermo QuikQuan software which collects intensity data for all fragments related to the molecular weight of the test compound. […]

Human microsomal stability CLint [1] [µL/min/mg] | Mouse microsomal stability CLint [2] [µL/min/mg] | Rat microsomal stability CLint [3] [µL/min/mg] | SMILES
28.27 | 35.45 | – | C[C@H](Nc1nccc(N2C(=O)OC[C@@H]2[C@H](C)F)n1)c1ncc(-c2ccnc(C(F)(F)F)c2)cc1F [Example 463, (R)-3-(2-(((S)-1-(5-fluoro-2′-(trifluoromethyl)-[3,4′-bipyridin]-6-yl)ethyl)amino)pyrimidin-4-yl)-4-((S)-1-fluoroethyl)oxazolidin-2-one]
<7.70 | 18.72 | – | C[C@H](Nc1nccc(N2C(=O)OC[C@@H]2CF)n1)c1cn(-c2ccc(Cl)cc2)cn1 [Example 404, (R)-3-(2-(((S)-1-(1-(4-chlorophenyl)-1H-imidazol-4-yl)ethyl)amino)pyrimidin-4-yl)-4-(fluoromethyl)oxazolidin-2-one]

More lines, now with the values behind:

SMILES | Human microsomal stability CLint [1] [µL/min/mg] | Mouse microsomal stability CLint [2] [µL/min/mg] | Rat microsomal stability CLint [3] [µL/min/mg]
C[C@H](Nc1nccc(N2C(=O)OC[C@@H]2[C@H](C)F)n1)c1cn(-c2ccc(F)cc2)cn1 [Example 401, (R)-4-((S)-1-fluoroethyl)-3-(2-(((S)-1-(1-(4-fluorophenyl)-1H-imidazol-4-yl)ethyl)amino)pyrimidin-4-yl)oxazolidin-2-one] | <7.70 | 33.13 | –
C[C@H](Nc1nccc(N2C(=O)OCC2[C@H](C)F)n1)c1cn(-c2ccc(C(F)F)cc2)cn1 (stereo partly shown) [456 as TFA salt] | 16.79 | – | 44.66
C[C@H](Nc1nccc(N2C(=O)OC[C@@H]2[C@@H](C)N)n1)c1cnc(-c2ccc(Cl)cc2)s1 [Example 380, (S)-4-((R)-1-aminoethyl)-3-(2-(((S)-1-(2-(4-chlorophenyl)thiazol-5-yl)ethyl)amino)pyrimidin-4-yl)oxazolidin-2-one] | 31.15 | 51.00 | –
